This is an account of results in ChEMBL document CHEMBL6078696, “Nanomolar activity of coumarin-3-thiosemicarbazones targeting Trypanosoma cruzi cruzain and the T. brucei cathepsin L-like protease” (Eur J Med Chem, 2025).

The nature of data set [1]: Cytotoxicity against mouse C2C12 cells at 10 uM relative to control. It counts as toxicity, cell-based. The following applies: read-out: INH.
The test system of data set [2] is Trypanosoma brucei. Kind of data set: Antitrypanosomal activity against Trypanosoma brucei trypomastigotes assessed as parasite growth inhibition at 50 uM incubated for 72 hrs by resazurin dye based assay relative to control. The format is functional.
Data set [3] has as its system Trypanosoma cruzi. Kind of data set: Antitrypanosomal activity against intracellular Trypanosoma cruzi amastigotes infected in mouse C2C12 cells at 10 uM incubated for 48 hrs by DAPI staining based analysis relative to control. The format is functional.
Data set [4] is described as follows: Cytotoxicity against HEK293 cells at 50 uM incubated for 48 hrs by resazurin reduction assay relative to control. The format is toxicity, cell-based. The following applies: human, read-out: INH.
Data set [5] in a line: Cytotoxicity against HEK293 cells incubated for 48 hrs by resazurin reduction assay. It counts as toxicity, cell-based. The following applies: human.
The subject of data set [6] is Trypanosoma brucei. Kind of data set: Inhibition of recombinant Trypanosoma brucei CATL using Z-Phe-Arg-aminomethylcoumarin as substrate at 50 uM preincubated for 10 mins followed by substrate addition by fluorimetry relative to control.
Data set [7] concerns the target Cruzipain (Trypanosoma cruzi) (UniProt P25779). The data set is described as follows: Inhibition of recombinant Trypanosoma cruzi CRZ using Z-Phe-Arg-aminomethylcoumarin as substrate at 50 uM preincubated for 10 mins followed by substrate addition by fluorimetry relative to control.
In data set [8] the test system is Trypanosoma cruzi. Kind of data set: Antitrypanosomal activity against Trypanosoma cruzi amastigotes infected in cell model. The format is functional, organism-based.
Data set [9] is described as follows: Inhibition of Trypanosoma brucei CATL.
The target in data set [10] is T1, Cruzipain (Trypanosoma cruzi, UniProt P25779). Kind of data set: Inhibition of Trypanosoma cruzi CRZ.
The nature of data set [11]: Inhibition of recombinant Trypanosoma brucei CATL using Z-Phe-Arg-aminomethylcoumarin as substrate preincubated for 10 mins followed by substrate addition by fluorimetry.
Data set [12] has as its target T1, Cruzipain. Kind of data set: Inhibition of recombinant Trypanosoma cruzi CRZ using Z-Phe-Arg-aminomethylcoumarin as substrate preincubated for 10 mins followed by substrate addition by fluorimetry.
The test system of data set [13] is Trypanosoma brucei. The data set is described as follows: Potency index, ratio of FN-27 IC50 to test compound IC50 recombinant Trypanosoma brucei CATL.
Data set [14] concerns the target Cruzipain (Trypanosoma cruzi) (UniProt P25779). The data set is described as follows: Potency index, ratio of FN-27 IC50 to test compound IC50 recombinant Trypanosoma cruzi CRZ.
A short description of data set [15]: Selectivity index, ratio of CC50 for cytotoxicity against HEK293 cells to EC50 for Trypanosoma brucei trypomastigotes. It counts as toxicity, cell-based. The note with it: human, read-out: Ratio CC50/EC50.
Data set [16] deals with Trypanosoma brucei. Kind of data set: Antitrypanosomal activity against Trypanosoma brucei trypomastigotes assessed as parasite growth inhibition incubated for 72 hrs by resazurin dye based assay. It counts as functional, organism-based.

T1 sequence (P25779 whole entry): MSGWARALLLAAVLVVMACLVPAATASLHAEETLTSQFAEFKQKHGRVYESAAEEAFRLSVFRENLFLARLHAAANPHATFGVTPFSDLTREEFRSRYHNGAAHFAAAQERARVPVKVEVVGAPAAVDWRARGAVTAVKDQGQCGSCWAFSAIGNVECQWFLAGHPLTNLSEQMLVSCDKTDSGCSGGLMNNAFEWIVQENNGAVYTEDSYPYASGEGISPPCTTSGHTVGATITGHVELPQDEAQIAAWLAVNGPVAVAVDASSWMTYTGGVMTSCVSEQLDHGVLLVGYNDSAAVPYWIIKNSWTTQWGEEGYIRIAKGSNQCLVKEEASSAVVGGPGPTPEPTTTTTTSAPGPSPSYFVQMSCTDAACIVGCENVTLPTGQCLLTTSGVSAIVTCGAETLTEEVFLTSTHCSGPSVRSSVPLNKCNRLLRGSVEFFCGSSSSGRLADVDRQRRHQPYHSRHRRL
Sequence of Cruzipain (Trypanosoma cruzi) (P25779 123-467 limits assumed): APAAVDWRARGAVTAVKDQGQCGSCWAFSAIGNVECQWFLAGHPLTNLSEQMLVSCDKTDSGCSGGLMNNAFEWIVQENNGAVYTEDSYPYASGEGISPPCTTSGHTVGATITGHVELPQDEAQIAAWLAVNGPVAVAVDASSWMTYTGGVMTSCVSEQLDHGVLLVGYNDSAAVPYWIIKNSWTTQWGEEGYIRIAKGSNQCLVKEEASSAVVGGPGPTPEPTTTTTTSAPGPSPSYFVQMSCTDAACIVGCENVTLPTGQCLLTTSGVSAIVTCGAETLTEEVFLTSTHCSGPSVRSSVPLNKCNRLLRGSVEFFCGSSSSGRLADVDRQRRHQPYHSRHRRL

Regarding `COc1ccc2cc(C(=O)NCCc3c[nH]c4ccccc34)c(=O)oc2c1`, the cytotoxicity at 10 µM in data set [1] is 0%. The inhibition at 50 µM in the data set on Trypanosoma brucei [2] worked out at 59%. For the same molecule, testing at 10 µM in the data set on Trypanosoma cruzi [3] gave an inhibition of 27%. Moreover, the cytotoxicity at 48 h, 50 µM in [4] was found to be 81%. The molecule also registered a CC50 at 48 h in data set [5] of 32.1 µM.

On to `CC(C)C[C@H](NC(=O)[C@H](Cc1ccccc1)NC(=O)c1cnccn1)B(O)O` [BORTEZOMIB], for which the cytotoxicity at 48 h, 50 µM in data set [4] amounted to 100%.

Regarding `O=C(NCCc1c[nH]c2ccccc12)c1cc2cc(Cl)cc(Cl)c2oc1=O`, the cytotoxicity at 10 µM in [1] turned out to be 0%. Also, the inhibition at 50 µM in the data set with Trypanosoma brucei [2] was 44%. This molecule displayed an inhibition at 10 µM in the data set with Trypanosoma cruzi [3] of 23%. In addition, the cytotoxicity at 48 h, 50 µM in data set [4] turned out to be 17%. The inhibition in the data set with Trypanosoma brucei [6] amounted to 9%; in data set [7], 22%.

`O=C(NCCc1c[nH]c2ccccc12)c1cc2cc(I)ccc2oc1=O`: the cytotoxicity at 10 µM in data set [1] was 1%. Moreover, in the data set with Trypanosoma brucei [2], the inhibition at 50 µM came to 39%. The same molecule registered an inhibition at 10 µM with Trypanosoma cruzi [3] of 7%. Besides, the cytotoxicity at 48 h, 50 µM in [4] was 41%. For the same molecule, the inhibition in the data set on Trypanosoma brucei [6] was 18%; in data set [7], 7%.

As to `O=C(c1cc2ccccc2oc1=O)N1CCN(c2ccccc2)CC1`, the cytotoxicity at 10 µM in data set [1] worked out at 0%. In addition, in the data set on Trypanosoma brucei [2], the inhibition at 50 µM is 17%. 10 µM produced 8% inhibition in the data set on Trypanosoma cruzi [3]. The cytotoxicity at 48 h, 50 µM in data set [4] was 11%. In addition, the results for the inhibition (in the data set with Trypanosoma brucei [6]; in data set [7]) were 34% and 48%, respectively.

The molecule `COc1cccc2cc(/C(C)=N/NC(N)=S)c(=O)oc12` returned an EC50 in the data set with Trypanosoma cruzi [8] of 5.5 µM. Besides, the IC50 in [9] was 2 µM; against Cruzipain [10], 14.4 µM.

For `C/C(=N\NC(N)=S)c1cc2ccc(C)cc2oc1=O`, the IC50 came out at 0.022 µM in data set [11] and 0.2 µM at Cruzipain [12]. In data set [1], the cytotoxicity at 10 µM came out at 0%. For the same molecule, the inhibition at 50 µM in the data set with Trypanosoma brucei [2] came to 23%. For the same molecule, the inhibition at 10 µM in the data set on Trypanosoma cruzi [3] was determined as 52%. Also, the Ratio IC50 amounted to 92 in the data set on Trypanosoma brucei [13] and 72 in data set [14]. Besides, the cytotoxicity at 48 h, 50 µM in data set [4] was 10%. Also, the CC50 at 48 h in data set [5] was 114 µM. Moreover, the inhibition came out at 97% in the data set on Trypanosoma brucei [6] and 98% in data set [7].

As to `COc1cc(OC)c2cc(C(=O)N3CCN(c4ccccc4)CC3)c(=O)oc2c1`, the cytotoxicity at 10 µM in data set [1] was 0%. In addition, the inhibition at 50 µM in the data set with Trypanosoma brucei [2] was 15%. In the data set with Trypanosoma cruzi [3], this molecule came in with an inhibition at 10 µM of 2%. The cytotoxicity at 48 h, 50 µM in [4] is 18%. For the same molecule, the inhibition in the data set on Trypanosoma brucei [6] amounted to 24%; in data set [7] it was 3%.

Take `O=C(c1cc2cc(I)ccc2oc1=O)N1CCN(c2ccccc2)CC1`: in [1], the cytotoxicity at 10 µM is 0%. The inhibition at 50 µM in the data set with Trypanosoma brucei [2] was determined as 12%. For the same molecule, testing at 10 µM in the data set with Trypanosoma cruzi [3] gave an inhibition of 5%. In [4], the cytotoxicity at 48 h, 50 µM came to 13%. The inhibition was 19% in the data set with Trypanosoma brucei [6] and 2% in data set [7].

On to `CC(C)C[C@H](NC(=O)[C@H]1O[C@@H]1C(=O)O)C(=O)NCCCCN=C(N)N`, for which, in the data set on Trypanosoma brucei [6], the inhibition was 99%.

For `N=C(N)c1ccc(OCCCCCOc2ccc(C(=N)N)cc2)cc1` [PENTAMIDINE], in the data set on Trypanosoma brucei [2], the inhibition at 50 µM stood at 100%.

For the molecule `O=C(NCc1ccccc1)c1cc2ccccc2oc1=O`, the cytotoxicity at 10 µM in data set [1] came to 10%. The inhibition at 50 µM with Trypanosoma brucei [2] was determined as 38%. 10 µM produced 6% inhibition with Trypanosoma cruzi [3]. In data set [4], the cytotoxicity at 48 h, 50 µM came out at 3%. Moreover, the inhibition was 7% with Trypanosoma brucei [6] and 1% in data set [7].

With `COc1ccc2cc(C(=O)N3CCN(c4ccccc4)CC3)c(=O)oc2c1`, the cytotoxicity at 10 µM in [1] amounted to 1%. The inhibition at 50 µM in the data set on Trypanosoma brucei [2] is 43%. In the data set with Trypanosoma cruzi [3], testing at 10 µM gave an inhibition of 27%. For the same molecule, the cytotoxicity at 48 h, 50 µM in data set [4] came to 11%. Besides, the inhibition in the data set with Trypanosoma brucei [6] turned out to be 29%; in [7], 5%.

With `C/C(=N\NC(N)=S)c1cc2ccccc2oc1=O`, the IC50 was found to be 0.073 µM in data set [11] and 0.068 µM at Cruzipain [12]. In addition, in data set [1], the cytotoxicity at 10 µM was determined as 0%. Further, the inhibition at 50 µM in the data set with Trypanosoma brucei [2] was 40%. This molecule gave an inhibition at 10 µM in the data set on Trypanosoma cruzi [3] of 49%. Moreover, in [4], the cytotoxicity at 48 h, 50 µM turned out to be 11%. Also, the inhibition in the data set on Trypanosoma brucei [6] amounted to 88%; in [7], 97%.

Regarding `O=C(c1cc2cc(Cl)cc(Cl)c2oc1=O)N1CCN(c2ccccc2)CC1`, the cytotoxicity at 10 µM in [1] is 5%. The inhibition at 50 µM with Trypanosoma brucei [2] is 24%. This molecule also showed an inhibition at 10 µM with Trypanosoma cruzi [3] of 25%. In addition, the cytotoxicity at 48 h, 50 µM in data set [4] turned out to be 12%. The inhibition in the data set with Trypanosoma brucei [6] is 12%; in data set [7], 6%.

With `CCN(CC)c1ccc2cc(/C(C)=N/NC(N)=S)c(=O)oc2c1`, the cytotoxicity at 10 µM in data set [1] worked out at 11%. Moreover, the IC50 on Cruzipain [12] is 0.046 µM. In addition, in the data set with Trypanosoma brucei [2], the inhibition at 50 µM was determined as 56%. The same molecule returned an inhibition at 10 µM in the data set with Trypanosoma cruzi [3] of 44%. In addition, the cytotoxicity at 48 h, 50 µM in [4] stood at 80%. Half-maximal cytotoxicity in data set [5] (CC50 at 48 h) was put at 42.7 µM. Besides, the inhibition with Trypanosoma brucei [6] stood at 77%; in [7], 30%.

As for `COc1ccc2cc(C(=O)NCc3ccccc3)c(=O)oc2c1`, the cytotoxicity at 10 µM in data set [1] is 0%. Further, the inhibition at 50 µM with Trypanosoma brucei [2] was 45%. In addition, the inhibition at 10 µM in the data set on Trypanosoma cruzi [3] was 21%. Further, the cytotoxicity at 48 h, 50 µM in [4] stood at 1%.

As for `C/C(=N\NC(N)=S)c1cc2cc(Br)ccc2oc1=O`, the IC50 in data set [11] was 0.698 µM; at Cruzipain [12], 0.145 µM. Further, the cytotoxicity at 10 µM in data set [1] amounted to 12%. The selectivity ratio in data set [15] is about 1.2. Also, the EC50 in the data set on Trypanosoma brucei [16] was found to be 43.6 µM. In the data set on Trypanosoma brucei [2], the inhibition at 50 µM is 71%. Also, in the data set with Trypanosoma cruzi [3], testing at 10 µM gave an inhibition of 57%. For the same molecule, in data set [4], the cytotoxicity at 48 h, 50 µM worked out at 13%. This molecule displayed a CC50 at 48 h in data set [5] of 52.3 µM. Also, the inhibition in the data set with Trypanosoma brucei [6] was 87%; in data set [7] it was 92%.

Consider `COc1cc(OC)c2cc(C(=O)NCCc3c[nH]c4ccccc34)c(=O)oc2c1`, for which the cytotoxicity at 10 µM in data set [1] was 0%. In the data set on Trypanosoma brucei [2], the inhibition at 50 µM amounted to 43%. Besides, 10 µM produced 13% inhibition in the data set with Trypanosoma cruzi [3]. Besides, the cytotoxicity at 48 h, 50 µM in [4] is 31%. In addition, the inhibition with Trypanosoma brucei [6] stood at 15%; in [7], 25%.

As for `O=C(NCCc1c[nH]c2ccccc12)c1cc2ccccc2oc1=O`, the cytotoxicity at 10 µM in [1] stood at 16%. In addition, the inhibition at 50 µM with Trypanosoma brucei [2] was determined as 63%. The molecule also displayed an inhibition at 10 µM with Trypanosoma cruzi [3] of 24%. In addition, the cytotoxicity at 48 h, 50 µM in [4] was determined as 76%. This molecule also gave a CC50 at 48 h in data set [5] of 19.6 µM. The figures for the inhibition (with Trypanosoma brucei [6]; in data set [7]) were 25% and 10%, respectively.

For `O=C(Cn1ccnc1[N+](=O)[O-])NCc1ccccc1` [BENZNIDAZOLE], in data set [1], the cytotoxicity at 10 µM was found to be 0%. In the data set with Trypanosoma cruzi [3], the inhibition at 10 µM amounted to 77%.

Take `COc1cc(OC)c2cc(C(=O)NCc3ccccc3)c(=O)oc2c1`: the cytotoxicity at 10 µM in data set [1] was 0%. Also, in the data set on Trypanosoma brucei [2], the inhibition at 50 µM was determined as 3%. For the same molecule, at 10 µM the inhibition with Trypanosoma cruzi [3] was 17%. Further, the cytotoxicity at 48 h, 50 µM in [4] was found to be 23%.

Consider `O=C(Nc1ccccc1)c1cc2ccccc2oc1=O`, for which the cytotoxicity at 10 µM in data set [1] stood at 1%. Also, the inhibition at 50 µM in the data set on Trypanosoma brucei [2] was determined as 52%. Besides, the inhibition at 10 µM in the data set on Trypanosoma cruzi [3] turned out to be 3%. For the same molecule, the cytotoxicity at 48 h, 50 µM in [4] was determined as 0%. Moreover, the inhibition in the data set on Trypanosoma brucei [6] was 17%; in [7], 9%.
